Source: patent publication US11180503B2, “[1,2,4]Triazolo[4,3-A]pyrazin-6(5H)-one derivatives” (Eli Lilly and Company, priority 2017, dated 2021)

What was measured:
Format in all cases: biochemical
[1] = target: human PDE6A/6B (Homo sapiens (Human), UniProt P16499+P35913); assay: PDE enzyme assay using [3H]cGMP as substrate (radiometric SPA); conditions: human PDE6A/6B dimer 5 nM, [3H]cGMP 80 nM; read-out: PDE 6AB IC50
Excerpt: (§1) The nucleotide sequences encoding full-length human PDE1A (NP_001003683.1) and PDE1C (NP_005011.1) are inserted into pFastBac1 (Invitrogen) vector with an N-terminal HIS tag. The nucleotide sequences encoding full-length human PDE4D (NP_006194.2) and catalytic domain (residue 641-1141) of PDE3A (NP_000912.3) are inserted into pFastBac1 (Invitrogen) vector with a C-terminal HIS tag. The nucleotide sequences encoding full-length human PDE6A (NP_000431.2) and PDE6B (AAH00249.1) are inserted into pFastBacDual (Invitrogen) vector with an N-terminal HIS tag and N-terminal Flag tag, respectively, for production of PDE6A/6B dimer. Baculovirus generation and protein expression in Sf9 cells are carried out according to the protocol of Bac-to-Bac Baculovirus Expression system (Invitrogen). The nucleotide sequence encoding full-length human PDE1B (NP_000915.1) is inserted into pIEX4 (Novagen) with a C-terminal HIS tag, and both protein productions in Sf9 cells are carried out according to the vendor's protocol (Novagen). The His tagged PDE proteins are purified using Ni-NTA agarose (Qiagen) followed by size exclusion chromatography on a SUPERDEX® 200 column (GE Healthcare) in storage buffer (20 mM Tris-HCl, pH7.5, 150 mM NaCl, 10% Glycerol). The Flag tagged PDE proteins including PDE6A/6B are purified using anti-Flag M2-agarose (Sigma), after purification through NiNTA column chromatography and eluted in storage buffer (50 mM Tris-HCl, pH7.5, 150 mM NaCl, 10% Glycerol, 0.1 mg/ml Flag peptide). All purified proteins are stored at −80° C. in small aliquots.
(§2) All 3′,5′ cyclic nucleotide phosphodiesterase (PDE) enzyme activities are measured with a radiometric enzyme assay based on SPA detection system (scintillation proximity assay). Compounds to be tested are diluted in pure dimethyl sulfoxide (DMSO) using ten point concentration response curves. Maximal compound concentration in the reaction mixture is either 10 or 100 μM. Compounds at the appropriate concentration are pre-incubated with either of the PDE enzymes for 30 minutes before the reaction is started by the addition of substrate. Reactions are allowed to proceed for 60 minutes at room temperature. Next, reactions are stopped by addition of SPA beads. Samples are read 12 hours later in a MICROBETA™ TRILUX® Counter. “IC50” refers to the concentration of the compound that produces 50% of the maximal inhibitory response possible for that compound. IC50 values are calculated by plotting the normalized data vs. log [compound] and fitting the data using a four parameter logistic equation.
The following phosphodiesterase activities are measured using [^3H]cGMP as reaction substrate: human PDE6A/6B. The catalytic active form of human PDE6 is a dimer composed of a α (human PDE6A) and β subunits (human PDE6B). The dimer of human PDE6A/6B is produced by the coexpression and purification strategy, using two purification steps, i.e., NiNTA and anti-FLAG Sepharose chromatography. The assay buffer is prepared to give a final concentration in the assay of 50 mM Tris-HCl, 8.3 mM MgCl2, 1.7 mM EDTA and 0.1% Bovine serum albumin at pH 7.5. The final enzyme concentration is 5 nM. The reactions are started by addition of the substrate, [^3H]cGMP, to give a final concentration of 80 nM.

[2] = target: human PDE1A (Homo sapiens (Human), UniProt P54750); assay: Ca2+-calmodulin dependent PDE enzyme assay (radiometric SPA, [3H]cAMP); conditions: human PDE1A 0.25 nM, [3H]cAMP 47 nM; read-out: PDE 1A IC50
Excerpt: as §1, §2
(§3) PDE1B, PDE1A, and PDE1C are cloned and purified following standard protein generation procedures. The assay buffer is prepared to give a final concentration in the assay of 50 mM Tris-HCl, 50 mM MgCl2, 4 mM CaCl2, 0.1% Bovine serum albumin and 6 U/ml Calmodulin in water, at pH 7.5. The final enzyme concentration is 0.25, 0.074 and 0.0012 nM, for PDE1A, PDE1B and PDE1C respectively. The reactions are started by addition of the substrate, [^3H]cAMP, to give a final concentration of 47 nM.

[3] = target: human PDE1B (Homo sapiens (Human), UniProt Q01064); assay: as above; conditions: human PDE1B 0.074 nM, [3H]cAMP 47 nM; read-out: PDE 1B IC50
Excerpt: as §1, §2, §3

[4] = target: human PDE1C (Homo sapiens (Human), UniProt Q14123); assay: as above; conditions: human PDE1C 0.0012 nM, [3H]cAMP 47 nM; read-out: PDE 1C IC50
Excerpt: as §1, §2, §3

[5] = target: human PDE4D (Homo sapiens (Human), UniProt Q08499); assay: PDE enzyme assay using [3H]cAMP as substrate (radiometric SPA); conditions: human PDE4D 0.021 nM, [3H]cAMP 47 nM; read-out: PDE 4D IC50
Excerpt: as §1, §2
(§4) The following phosphodiesterase activities are measured using [^3H]cAMP as reaction substrate: human PDE3A (catalytic domain) and human PDE4D. Both enzymes are cloned and purified following standard procedures. The assay buffer is prepared to give a final concentration in the assay of 50 mM Tris-HCl, 8.3 mM MgCl2, 1.7 mM ethylenediaminetetraacetic acid (EDTA) and 0.1% Bovine serum albumin at pH 7.5. Final enzyme concentrations are 0.008 and 0.021 nM for PDE3A and PDE4D, respectively. Reactions are started by addition of the substrate, [^3H]cAMP, to give a final concentration of 47 nM.

[6] = target: human PDE3A (catalytic domain) (Homo sapiens (Human), UniProt Q14432); assay: as above; conditions: human PDE3A catalytic domain 0.008 nM, [3H]cAMP 47 nM
Excerpt: as §1, §2, §4

Chain of human PDE6A/6B (P16499 whole entry, stated change not applied, the tested form may be a part): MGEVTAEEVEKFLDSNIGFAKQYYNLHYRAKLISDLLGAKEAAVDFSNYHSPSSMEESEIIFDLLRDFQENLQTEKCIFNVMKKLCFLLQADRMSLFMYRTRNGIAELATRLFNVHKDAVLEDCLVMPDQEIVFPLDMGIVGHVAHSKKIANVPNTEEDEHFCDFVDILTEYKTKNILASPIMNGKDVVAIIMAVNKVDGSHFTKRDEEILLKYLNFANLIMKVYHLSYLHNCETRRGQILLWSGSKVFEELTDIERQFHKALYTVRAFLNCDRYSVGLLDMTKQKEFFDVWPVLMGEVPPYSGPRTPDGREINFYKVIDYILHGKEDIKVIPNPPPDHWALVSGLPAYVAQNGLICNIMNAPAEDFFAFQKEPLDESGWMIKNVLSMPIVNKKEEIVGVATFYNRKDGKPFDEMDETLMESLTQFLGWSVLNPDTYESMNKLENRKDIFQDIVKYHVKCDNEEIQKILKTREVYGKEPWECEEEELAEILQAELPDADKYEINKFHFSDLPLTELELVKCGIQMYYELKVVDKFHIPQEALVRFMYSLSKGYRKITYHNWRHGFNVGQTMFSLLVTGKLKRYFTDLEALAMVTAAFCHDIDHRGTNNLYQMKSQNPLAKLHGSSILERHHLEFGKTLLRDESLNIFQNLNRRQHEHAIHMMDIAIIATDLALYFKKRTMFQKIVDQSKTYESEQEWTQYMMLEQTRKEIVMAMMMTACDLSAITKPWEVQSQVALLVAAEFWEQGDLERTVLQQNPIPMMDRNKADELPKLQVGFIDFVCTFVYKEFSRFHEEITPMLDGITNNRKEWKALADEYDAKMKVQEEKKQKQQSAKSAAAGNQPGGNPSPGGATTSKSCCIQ
Chain of human PDE6A/6B (P35913 other isoform, or with tags, fused parts or gaps isoform P35913-2): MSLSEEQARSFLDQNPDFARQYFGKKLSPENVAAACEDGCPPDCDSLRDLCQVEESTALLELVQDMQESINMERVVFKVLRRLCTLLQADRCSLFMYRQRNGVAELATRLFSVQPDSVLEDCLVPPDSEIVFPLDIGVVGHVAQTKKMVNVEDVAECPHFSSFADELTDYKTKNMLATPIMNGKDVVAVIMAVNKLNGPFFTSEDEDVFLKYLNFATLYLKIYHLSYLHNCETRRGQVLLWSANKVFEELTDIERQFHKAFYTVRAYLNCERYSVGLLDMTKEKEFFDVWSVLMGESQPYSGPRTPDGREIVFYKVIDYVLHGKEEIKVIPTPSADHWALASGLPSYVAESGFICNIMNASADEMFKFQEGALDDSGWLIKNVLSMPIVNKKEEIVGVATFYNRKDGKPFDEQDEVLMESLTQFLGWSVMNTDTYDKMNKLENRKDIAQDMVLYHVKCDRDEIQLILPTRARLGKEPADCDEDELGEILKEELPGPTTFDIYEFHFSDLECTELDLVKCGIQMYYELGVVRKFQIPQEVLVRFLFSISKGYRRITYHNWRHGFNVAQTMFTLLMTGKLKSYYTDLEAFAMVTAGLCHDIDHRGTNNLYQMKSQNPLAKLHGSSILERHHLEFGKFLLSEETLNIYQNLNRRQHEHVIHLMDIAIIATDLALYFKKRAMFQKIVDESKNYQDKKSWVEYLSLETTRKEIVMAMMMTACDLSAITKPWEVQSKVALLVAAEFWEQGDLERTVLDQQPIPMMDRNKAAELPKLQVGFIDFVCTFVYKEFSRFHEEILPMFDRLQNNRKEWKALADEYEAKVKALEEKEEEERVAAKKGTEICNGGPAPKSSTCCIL
Chain of human PDE4D (Q08499 other isoform, or with tags, fused parts or gaps): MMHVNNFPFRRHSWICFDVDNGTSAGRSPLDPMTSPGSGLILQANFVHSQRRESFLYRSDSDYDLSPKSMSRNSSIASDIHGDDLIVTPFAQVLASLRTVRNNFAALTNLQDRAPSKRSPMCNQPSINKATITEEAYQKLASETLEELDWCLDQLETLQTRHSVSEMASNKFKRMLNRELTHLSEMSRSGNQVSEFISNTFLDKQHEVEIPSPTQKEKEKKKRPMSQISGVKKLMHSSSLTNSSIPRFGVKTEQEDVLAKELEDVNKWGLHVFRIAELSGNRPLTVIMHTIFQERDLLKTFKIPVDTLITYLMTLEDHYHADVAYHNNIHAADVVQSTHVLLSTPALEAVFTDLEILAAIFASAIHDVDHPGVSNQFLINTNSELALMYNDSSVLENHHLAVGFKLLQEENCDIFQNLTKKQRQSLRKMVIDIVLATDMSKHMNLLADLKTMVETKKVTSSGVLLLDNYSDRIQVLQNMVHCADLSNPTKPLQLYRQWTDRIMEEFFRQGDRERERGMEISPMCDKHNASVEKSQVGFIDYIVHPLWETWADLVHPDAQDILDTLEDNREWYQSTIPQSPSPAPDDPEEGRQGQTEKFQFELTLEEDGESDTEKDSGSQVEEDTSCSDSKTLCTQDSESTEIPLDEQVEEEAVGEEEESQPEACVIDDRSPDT
Chain of human PDE3A (catalytic domain) (Q14432 641-1141): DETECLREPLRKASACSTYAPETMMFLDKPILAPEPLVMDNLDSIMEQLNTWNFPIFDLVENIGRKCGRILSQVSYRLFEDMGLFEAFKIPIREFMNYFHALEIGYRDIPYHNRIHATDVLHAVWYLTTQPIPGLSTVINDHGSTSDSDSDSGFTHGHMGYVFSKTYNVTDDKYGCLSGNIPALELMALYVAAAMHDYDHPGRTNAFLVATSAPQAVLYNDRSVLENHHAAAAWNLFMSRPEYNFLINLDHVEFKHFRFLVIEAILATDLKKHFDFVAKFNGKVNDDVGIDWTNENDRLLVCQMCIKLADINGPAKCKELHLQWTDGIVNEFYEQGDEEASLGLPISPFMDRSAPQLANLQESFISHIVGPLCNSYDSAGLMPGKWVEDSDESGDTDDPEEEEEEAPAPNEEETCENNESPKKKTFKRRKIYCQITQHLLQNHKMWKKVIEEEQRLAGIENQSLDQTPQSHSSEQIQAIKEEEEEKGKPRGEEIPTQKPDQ

Structure (SMILES) | IC50 [1] [nM] | IC50 [2] [nM] | IC50 [3] [nM] | IC50 [4] [nM] | IC50 [5] [nM] | IC50 [6] [nM]
O=c1c2nnc(C3(C4CC4)CC3)n2c2nc(O)ccc2n1CC1CC1 [Example 5, 9-([1,1′-bi(cylopropan)]-1-yl)-5-(cyclopropylmethyl)-2-hydroxypyrido[3,2-e][1,2,4]triazolo[4,3-a]pyrazin-6(5H)-one] | > 10000 | 2.75 ± 2.11 | 2.41 ± 0.846 | 0.931 ± 0.132 | 14700 ± 8240 | 22900 ± 1140
CCCCn1c(=O)c2nnc(C3(C4CC4)CC3)n2c2ncc(C)cc21 [Example 1, 9-([1,1′-bi(cyclopropan)]-1-yl)-5-butyl-3-methylpyrido[3,2-e][1,2,4]triazolo[4,3-a]pyrazin-6(5H)-one] | ≥ 3450 | 0.366 ± 0.765 | 0.406 ± 1.08 | < 0.508 | 1590 ± 217 | > 50000
CCCCn1c(=O)c2nnc(C3(C)CC3)n2c2ncc(C)cc21 [Example 6, 5-butyl-3-methyl-9-(1-methylcyclopropyl)pyrido[3,2-e][1,2,4]triazolo[4,3-a]pyrazin-6(5H)-one] | 9590 | 11.6 ± 7.55 | 15.4 ± 0.0529 | 2.57 ± 0.544 | 6010 | > 100000
CCCn1c(=O)c2nnc(C3(C4CC4)CC3)n2c2ncc(C)cc21 [Example 3, 9-([1,1′-Bi(cyclopropan)]-1-yl)-3-methyl-5-propylpyrido[3,2-e][1,2,4]triazolo[4,3-a]pyrazin-6(5H)-one] | > 10000 | 2.59 ± 1.69 | 3.41 ± 1.52 | 2.77 ± 0.636 | 2120 | > 100000
CCC(Cn1c(=O)c2nnc(C3(C4CC4)CC3)n2c2ncccc21)OC (single isomer, unassigned) [Example 4b, 9-([1,1′-bi(cyclopropan)]-1-yl)-5-(2-methoxybutyl)pyrido[3,2-e][1,2,4]triazolo[4,3-a]pyrazin-6(5H)-one] |  | 15.1 ± 2.84 | 25.8 ± 0.614 | 1.46 ± 0.642 | > 100000 | 
CCCCn1c(=O)c2nnc(C3(C(F)(F)F)CC3)n2c2ncc(C)cc21 [Example 2, 5-Butyl-3-methyl-9-(1-(trifluoromethyl)cyclopropyl)pyrido[3,2-e][1,2,4]triazolo[4,3-a]pyrazin-6(5H)-one] | > 10000 | 8.62 ± 2.53 | 12.1 ± 1.06 | 1.62 ± 0.231 | 26000 | > 100000
CCC(Cn1c(=O)c2nnc(C3(C4CC4)CC3)n2c2ncccc21)OC (racemic) [Example 4, rac-9-([1,1′-Bi(cyclopropan)]-1-yl)-5-(2-methoxybutyl)-pyrido[3,2-e][1,2,4]triazolo[4,3-a]pyrazin-6(5H)-one] | > 10000 | 13.9 ± 2.06 | 33.5 ± 6.26 | 0.609 ± 0.128 | 33600 | > 100000
CCC(Cn1c(=O)c2nnc(C3(C4CC4)CC3)n2c2ncccc21)OC (single isomer, unassigned) [Example 4a, 9-([1,1′-bi(cyclopropan)]-1-yl)-5-(2-methoxybutyl)pyrido[3,2-e][1,2,4]triazolo[4,3-a]pyrazin-6(5H)-one] | > 10000 | 26.8 | 40.1 | 1.49 | > 100000 | > 100000

Now from value to compound:

IC50 [1] [nM] | IC50 [2] [nM] | IC50 [3] [nM] | IC50 [4] [nM] | IC50 [5] [nM] | IC50 [6] [nM] | Structure (SMILES)
611 | 0.26 ± 0.589 | 0.396 ± 0.749 | < 0.5 | 972 | > 100000 | CCCCn1c(=O)c2nnc(C3(C4CC4)CC3)n2c2ncc(C(C)C)cc21 [Example 10, 9-([1,1′-bi(cyclopropan)]-1-yl)-5-butyl-3-isopropylpyrido[3,2-e][1,2,4]triazolo[4,3-a]pyrazin-6(5H)-one]
3060 ± 1450 | 23 ± 3.62 | 17.4 ± 10 | 4.02 ± 0.167 | 5130 ± 2140 | ≥ 93400 | CCCCn1c(=O)c2nnc(C3(C)CC3)n2c2ncc(CO)cc21 [Example 12, 5-Butyl-3-(hydroxymethyl)-9-(1-methylcyclopropyl)pyrido[3,2-e][1,2,4]triazolo[4,3-a]pyrazin-6(5H)-one]
 |  |  | < 0.5 | 5560 |  | CCCCn1c(=O)c2nnc(C3(C4CC4)CC3)n2c2ncc(CO)cc21 [Example 11]
 |  |  | < 0.5 | 675 |  | CCCCn1c(=O)c2nnc(C3(C4CC4)CC3)n2c2ncc(CC)cc21 [Example 9, 9-([1,1′-Bi(cyclopropan)]-1-yl)-5-butyl-3-ethylpyrido[3,2-e][1,2,4]triazolo[4,3-a]pyrazin-6(5H)-one]
1200 | 0.343 ± 0.765 | 0.4 ± 0.867 | < 0.5 | 3020 | 71200 | CCCCn1c(=O)c2nnc(C3(C4CC4)CC3)n2c2nc(C)c(C)cc21 [Example 7, 9-([1,1′-Bi(cyclopropan)]-1-yl)-5-butyl-2,3-dimethylpyrido[3,2-e][1,2,4]triazolo[4,3-a]pyrazin-6(5H)-one]
3290 | 8.01 ± 3.55 | 9.34 ± 4.33 | 2.14 ± 0.997 | 957 | > 100000 | CCCCn1c(=O)c2nnc(C3(C)CC3)n2c2ncc(CC)cc21 [Example 8, 5-butyl-3-ethyl-9-(1-methylcyclopropyl)pyrido[3,2-e][1,2,4]triazolo[4,3-a]pyrazin-6(5H)-one]
2990 | 0.816 ± 0.198 | 1.13 ± 0.254 | < 0.5 | 2090 | 19200 | CCCCn1c(=O)c2nnc(C3(C4CC4)CC3)n2c2nc(C)ccc21 [Example 13, 9-([1,1′-bi(cyclopropan)]-1-yl)-5-butyl-2-methylpyrido[3,2-e][1,2,4]triazolo[4,3-a]pyrazin-6(5H)-one]
